Reference: patent US20080207728A1, “BICYCLIC ACYLTRYPTOPHANOLS” (priority 2006, published 2008)
pIC50: −log10 of the molar value. Read-outs that look alike come from different tables or passages of the source.

Biological target: T1, human FSH receptor (Homo sapiens, UniProt P23945)
T1 construct: expressed in transfected cells; host or cells: CHO cells (hFSHR clone 16)
T1 sequence (P23945 18-695): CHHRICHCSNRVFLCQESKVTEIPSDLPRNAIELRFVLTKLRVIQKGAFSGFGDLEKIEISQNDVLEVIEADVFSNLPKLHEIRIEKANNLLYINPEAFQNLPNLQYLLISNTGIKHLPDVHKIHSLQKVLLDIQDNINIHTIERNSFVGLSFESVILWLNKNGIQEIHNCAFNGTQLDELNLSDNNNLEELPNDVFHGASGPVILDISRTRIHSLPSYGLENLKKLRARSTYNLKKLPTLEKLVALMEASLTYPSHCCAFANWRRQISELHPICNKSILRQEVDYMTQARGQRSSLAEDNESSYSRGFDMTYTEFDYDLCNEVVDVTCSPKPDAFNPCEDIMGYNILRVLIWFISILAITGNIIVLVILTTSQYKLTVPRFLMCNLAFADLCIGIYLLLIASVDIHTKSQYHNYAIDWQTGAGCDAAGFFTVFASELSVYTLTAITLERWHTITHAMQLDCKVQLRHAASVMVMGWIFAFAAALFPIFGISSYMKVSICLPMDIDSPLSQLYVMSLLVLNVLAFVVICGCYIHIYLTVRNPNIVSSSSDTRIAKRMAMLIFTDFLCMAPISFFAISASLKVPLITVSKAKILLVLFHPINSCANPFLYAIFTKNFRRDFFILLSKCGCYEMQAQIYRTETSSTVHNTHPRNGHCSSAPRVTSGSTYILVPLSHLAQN
Assay: HTRF assay for measuring cAMP in cells (FSH antagonism)
Type: cell-based
Conditions: hFSHR clone 16 cells (CHO cells stably transfected with the human FSH receptor), in the presence of 1e-9 mol/l hFSH, 37° C. for 2 h, read-out: IC50 (FSH-antagonistic effect in the HTRF assay)
Description: HTRF Assay for Measuring cAMP in Cells
The method is based on a competitive immunoassay between native cAMP, which has been produced by the cells, and cAMP which is labelled with XL665. The tracer binding was visualized by a monoclonal antibody, anti-cAMP labelled with cryptate [HTRF=homogeneous time-resolved fluorescence].
The specific signal is inversely proportional to the cAMP concentration of the samples employed.
The 665 nm/620 nm fluorescence ratio was evaluated.
The following material was used: 96-well plates for the tissue culture, 96-well plates with black edge and black base (e.g. Fluotrac 600 from Greiner), 96-well plates for the substance dilutions of polypropylene and cAMP Femtomolar (4000 wells Kit, CIS Bio International # 62AM1PEC).
The following reagents were used: BSA (bovine serum albumin) Fraction V protease-free, IBMX (3-isobutyl-1-methylxanthine), hFSH (human follicle stimulating hormone), Triton X-100 analytical grade, potassium fluoride analytical grade, G 418 (Geneticin) and Accutase.
Buffer 1 (washing and testing buffer) contained PBS, 1 mM CaCl2, 1 mM MgCl2, 0.2% glucose; 0.1% BSA, 1 mM IBMX.
Buffer 2 (2× lysis buffer) contained 1% Triton X-100 in PBS (without CaCl2 and MgCl2).
Buffer 3 (assay buffer) contained 50 mM potassium phosphate buffer (pH 7.0); 800 mM potassium fluoride; 0.2% BSA (always added fresh).
On day 1, the cells were seeded in 96-well plates (3×10^4 cells per well hFSHR clone 16 cells (CHO cells stably transfected with the human FSH receptor in 150 μl of medium).
The next day, test substance dilutions were made up. For this purpose, all the substances were diluted in ice-cold buffer 1 (with or without hFSH), and the substance dilutions were placed on ice until applied to the cells.
The cell supernatant was then aspirated off, and the cells were washed 2× with 200 μl of buffer 1. The cells were treated with 60 μl of the appropriate substance concentrations at 37° C. for 2 h. The cells were then lysed with 60 μl of buffer 2 (put onto the supernatant) (on a plate shaker at RT for 30 min).
The test conjugates (XL-665 and anti-cAMP cryptate) were diluted in buffer 3 in accordance with the manufacturers' information. The actual mixture for measurement was pipetted into a black 96-well plate (in each case 15 μl of the cell lysate diluted with 35 μl of buffer 1; firstly 25 μl of XL-665 conjugate were pipetted and, after 10 min, 25 μl of the anti-cAMP cryptate were added). This is followed by incubation at RT for 90 minutes. The measurement was carried out in a PheraStar (BMG).
Tissue Culture Conditions
Dose-effect curve (hFSH) for the human receptor: 1e-8, 3e-9, 1 e-9, 3e-10, 1 e-10, 3e-11, 1e-11, 3e-12 mol/l.
The test substances were employed in suitable dilutions in the absence (test for agonism) and in the presence of 1e-9 mol/l hFSH.
The values of the well ratio were averaged and then entered directly in SigmaPlot versus the concentrations. The maximum and minimum values were determined for each plate, and half the difference is to be regarded as IC50.

| pIC50 (Table 1) | pIC50 (Table 2) | SMILES |
| --- | --- | --- |
| 5.40 | – | O=C(N[C@@H](CO)Cc1c[nH]c2ccccc12)c1cc(-c2ccc3ccccc3c2)cc2c1OCC2 [Example 43, 5-Naphthalen-2-yl-2,3-dihydro-benzofuran-7-carboxylic acid [(R)-1-hydroxymethyl-2-(1H-indol-3-yl)-ethyl]-amide] |
| 6.15 | – | O=C(N[C@@H](CO)Cc1c[nH]c2ccccc12)c1cc(-c2ccc(O)cc2)cc2c1OCC2 [Example 51, 5-(4-Hydroxy-phenyl)-2,3-dihydro-benzofuran-7-carboxylic acid [(R)-1-hydroxymethyl-2-(1H-indol-3-yl)-ethyl]-amide] |
| 5.70 | – | CC(=O)c1cccc(-c2cc3c(c(C(=O)N[C@@H](CO)Cc4c[nH]c5ccccc45)c2)OCC3)c1 [Example 56, 5-(3-Acetyl-phenyl)-2,3-dihydro-benzofuran-7-carboxylic acid [(R)-1-hydroxymethyl-2-(1H-indol-3-yl)-ethyl]-amide] |
| 5.70 | – | CNC(=O)c1ccc(-c2cc3c(c(C(=O)N[C@@H](CO)Cc4c[nH]c5ccccc45)c2)OCC3)cc1 [Example 65, 5-(4-Methylcarbamoyl-phenyl)-2,3-dihydro-benzofuran-7-carboxylic acid [(R)-1-hydroxymethyl-2-(1H-indol-3-yl)-ethyl]-amide] |
| 5.70 | – | N#CCc1ccc(-c2cc3c(c(C(=O)N[C@@H](CO)Cc4c[nH]c5ccccc45)c2)OCC3)cc1 [Example 73, 5-(4-Cyanomethyl-phenyl)-2,3-dihydro-benzofuran-7-carboxylic acid [(R)-1-hydroxymethyl-2-(1H-indol-3-yl)-ethyl]-amide] |
| 5.52 | – | Cc1cc(C)cc(-c2cc3c(c(C(=O)N[C@@H](CO)Cc4c[nH]c5ccccc45)c2)OCC3)c1 [Example 78, 5-(3,5-Dimethyl-phenyl)-2,3-dihydro-benzofuran-7-carboxylic acid [(R)-1-hydroxymethyl-2-(1H-indol-3-yl)-ethyl]-amide] |
| 5.40 | – | CNC(=O)c1cc(F)cc(-c2cc3c(c(C(=O)N[C@@H](CO)Cc4c[nH]c5ccccc45)c2)OCC3)c1 [Example 82, 5-(3-Fluoro-5-methylcarbamoyl-phenyl)-2,3-dihydro-benzofuran-7-carboxylic acid [(R)-1-hydroxymethyl-2-(1H-indol-3-yl)-ethyl]-amide] |
| 6.46 | – | O=C(NC(CO)Cc1c[nH]c2cc(F)ccc12)c1cc(/C=C/c2ccccc2)cc2c1OCCCC2 (centres unmarked) [Example 83, 7-((E)-Styryl)-2,3,4,5-tetrahydro-benzo[b]oxepine-9-carboxylic acid [2-(6-fluoro-1H-indol-3-yl)-1-hydroxymethyl-ethyl]-amide] |
| 7.30 | – | CNC(=O)c1ccc(C#Cc2cc3c(c(C(=O)NC(CO)Cc4c[nH]c5cc(F)ccc45)c2)OCCCC3)cc1 (centres unmarked) [Example 84, 7-(4-Methylcarbamoyl-phenylethynyl)-2,3,4,5-tetrahydro-benzo[b]oxepine-9-carboxylic acid [2-(6-fluoro-1H-indol-3-yl)-1-hydroxymethyl-ethyl]-amide] |
| 6.70 | – | COc1ccccc1C#Cc1cc2c(c(C(=O)N[C@@H](CO)Cc3c[nH]c4ccccc34)c1)OCCO2 [Example 85, 7-(2-Methoxy-phenylethynyl)-2,3-dihydro-benzo[1,4]dioxine-5-carboxylic acid [(R)-1-hydroxymethyl-2-(1H-indol-3-yl)-ethyl]-amide] |
| 5.82 | – | CNC(=O)c1cc(F)cc(-c2cc3c(c(C(=O)NC(CO)Cc4c[nH]c5cccc(C)c45)c2)OCCCC3)c1 (centres unmarked) [Example 86, 7-(3-Fluoro-5-methylcarbamoyl-phenyl)-2,3,4,5-tetrahydro-benzo[b]oxepine-9-carboxylic acid [2-hydroxy-1-(4-methyl-1H-indol-3-ylmethyl)-ethyl]-amide] |
| 7.52 | – | CNC(=O)c1ccc(-c2cc3c(c(C(=O)NC(CO)Cc4c[nH]c5cccc(F)c45)c2)OC(C)(C)C=C3)cc1Cl (centres unmarked) [Example 88, 6-(3-Chloro-4-methylcarbamoyl-phenyl)-2,2-dimethyl-2H-chromene-8-carboxylic acid [2-(4-fluoro-1H-indol-3-yl)-1-hydroxymethyl-ethyl]-amide] |
| – | 7.70 | CNC(=O)c1ccc(-c2cc3c(c(C(=O)NC(CO)Cc4c[nH]c5ccc(F)cc45)c2)OC(C)(C)C=C3)cc1Cl (centres unmarked) [Example 89, 6-(3-Chloro-4-methylcarbamoyl-phenyl)-2,2-dimethyl-2H-chromene-8-carboxylic acid [2-(5-fluoro-1H-indol-3-yl)-1-hydroxymethyl-ethyl]-amide] |
| – | 7.22 | CNC(=O)c1cccc(C#Cc2cc3c(c(C(=O)NC(CO)Cc4c[nH]c5cc(F)ccc45)c2)OCCCC3)c1 (centres unmarked) [Example 91, 7-(3-Methylcarbamoyl-phenylethynyl)-2,3,4,5-tetrahydro-benzo[b]oxepine-9-carboxylic acid [2-(6-fluoro-1H-indol-3-yl)-1-hydroxymethyl-ethyl]-amide] |
| – | 6.30 | O=C(N[C@@H](CO)Cc1c[nH]c2ccccc12)c1cc(-c2ccc(-c3ccccc3)cc2)cc2c1OCCO2 [Example 92, 7-Biphenyl-4-yl-2,3-dihydro-benzo[1,4]dioxine-5-carboxylic acid [(R)-1-hydroxymethyl-2-(1H-indol-3-yl)-ethyl]-amide] |
| – | 6.00 | O=C(N[C@@H](CO)Cc1c[nH]c2ccccc12)c1cc(-c2ccc(CO)cc2)cc2c1OCCO2 [Example 96, 7-(4-Hydroxymethyl-phenyl)-2,3-dihydro-benzo[1,4]dioxine-5-carboxylic acid [(R)-1-hydroxymethyl-2-(1H-indol-3-yl)-ethyl]-amide] |
| – | 6.05 | CSc1cccc(-c2cc3c(c(C(=O)N[C@@H](CO)Cc4c[nH]c5ccccc45)c2)OCCO3)c1 [Example 100, 7-(3-Methylsulfanyl-phenyl)-2,3-dihydro-benzo[1,4]dioxine-5-carboxylic acid [(R)-1-hydroxymethyl-2-(1H-indol-3-yl)-ethyl]-amide] |
| – | 6.00 | N#Cc1cc(-c2cc3c(c(C(=O)N[C@@H](CO)Cc4c[nH]c5ccccc45)c2)OCCO3)ccc1F [Example 104, 7-(3-Cyano-4-fluoro-phenyl)-2,3-dihydro-benzo[1,4]dioxine-5-carboxylic acid [(R)-1-hydroxymethyl-2-(1H-indol-3-yl)-ethyl]-amide] |

| SMILES | pIC50 (Table 1) | pIC50 (Table 2) |
| --- | --- | --- |
| CNC(=O)c1cccc(C#Cc2cc3c(c(C(=O)N[C@@H](CO)Cc4c[nH]c5ccccc45)c2)OC(C)(C)C=C3)c1 [Example 11, 2,2-Dimethyl-6-(3-methylcarbamoyl-phenylethynyl)-2H-chromene-8-carboxylic acid [(R)-1-hydroxymethyl-2-(1H-indol-3-yl)-ethyl]-amide] | 7.52 | – |
| O=C(N[C@@H](CO)Cc1c[nH]c2ccccc12)c1cc(-c2ccc3c(c2)OCO3)cc2c1OCC2 [Example 23, 5-Benzo[1,3]dioxol-5-yl-2,3-dihydro-benzofuran-7-carboxylic acid [(R)-1-hydroxymethyl-2-(1H-indol-3-yl)-ethyl]-amide] | 6.35 | – |
